Laboratory results as given in patent publication US6410557B1, “Dry skin remedies” (Daiichi Pharmaceutical Col, Ltd., priority 1999, dated 2002).
Where two headings read alike, the source gives them in different places.

What was measured:
Rat Foot Skin = assay: Promoting action on the secretion of sweat in rat foot skin (starch-iodine reaction); format: in vivo
Protocol: A pharmacological activity test was carried out using 6 male Wister rats (body weight 199-238 g) in one group. After fasting for 1 day, rats were anesthetized by 50 mg/kg of sodium pentobarbital which was intraperitoneally administered, and an endotracheal tube was inserted to maintain the airway.
The soles of the right and left feet were cleaned with 70% ethanol, then 95% ethanol containing 2% of iodine was applied and allowed to dry. Castor oil containing 50% corn starch was coated to the soles of both feet, 5 minutes later a solvent alone or 1,3,10, and 30 mg/kg of cis-2-methylspiro(1,3-oxathiolane-5,3′)quinuclidine hydrochloride were administered intravenously.

Humans = system: Humans
Protocol: A multi-facility double blind comparison study was carried out for examination of perspiration promoting action on human, by preparing capsules containing 30 or 60 mg of cis-2-methylspiro(1,3-oxathiolane-5,3′)quinuclidine hydrochloride. 75 Americans (69 White, 1 Black, and 5 Hispanic subjects) were divided into 3 groups randomly. Each group received either one placebo capsule (0 mg), one 30 mg capsule, or one 60 mg capsule orally administered three times a day for 6 weeks. The increase of perspiration in each group was tested.

[1] = 30 mg capsule orally × 3/day for 6 weeks, 25 subjects
[2] = 60 mg capsule orally × 3/day for 6 weeks, 27 subjects

| SMILES | sweat secretion on the soles of both feet (number of colored points, degree of perspiration) (Rat Foot Skin; anesthetized male Wister rats, 1, 3, 10 and 30 mg/kg intravenously, FIG. 1) | Number of Subjects Showing perspiration (Humans; [1]) | Number of Subjects Showing perspiration (%) (Humans; [1]) | Number of Subjects Showing perspiration (Humans; [2]) | Number of Subjects Showing perspiration (%) (Humans; [2]) | sweat secretion of human (Humans; capsules, oral, three times a day for 6 weeks) | effect on the sweat secretion promoting activity of the quinuclidine hydrochloride (Rat Foot Skin; rat soles of feet) |
| --- | --- | --- | --- | --- | --- | --- | --- |
| CC1OC2(CS1)CN1CCC2CC1.Cl (stereo not drawn) [cis-2-methylspiro(1,3-oxathiolane-5,3′)quinuclidine hydrochloride] | promoted depending on the dose level | 4 | 16.0 | 13 | 48.1 | remarkably promoted |  |
| CN1[C@@H]2CC[C@H]1C[C@@H](OC(=O)C(CO)c1ccccc1)C2 (stereo partly shown) [atropine, reference compound] |  |  |  |  |  |  | blocks this activity |
